Source: US9102591B2, “Benzamides” (H. Lundbeck A/S, priority 2012, dated 2015)
Where two headings read alike, the source gives them in different places.

Molecular target: P2X7 receptor (Homo sapiens (Human), UniProt Q99572)
Experiment: P2X7 FLIPR assay (BzATP-stimulated calcium fluorescence, antagonist IC50)
Format: cell-based
Outline: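 Cells expressing P2X7 receptor (human, rat or mouse), plated 24 hours earlier in low-serum medium, loaded with Fluo-4 NW dye (30 min 37° C, 30 min room temperature).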

Chain of P2X7 receptor (Q99572 whole entry): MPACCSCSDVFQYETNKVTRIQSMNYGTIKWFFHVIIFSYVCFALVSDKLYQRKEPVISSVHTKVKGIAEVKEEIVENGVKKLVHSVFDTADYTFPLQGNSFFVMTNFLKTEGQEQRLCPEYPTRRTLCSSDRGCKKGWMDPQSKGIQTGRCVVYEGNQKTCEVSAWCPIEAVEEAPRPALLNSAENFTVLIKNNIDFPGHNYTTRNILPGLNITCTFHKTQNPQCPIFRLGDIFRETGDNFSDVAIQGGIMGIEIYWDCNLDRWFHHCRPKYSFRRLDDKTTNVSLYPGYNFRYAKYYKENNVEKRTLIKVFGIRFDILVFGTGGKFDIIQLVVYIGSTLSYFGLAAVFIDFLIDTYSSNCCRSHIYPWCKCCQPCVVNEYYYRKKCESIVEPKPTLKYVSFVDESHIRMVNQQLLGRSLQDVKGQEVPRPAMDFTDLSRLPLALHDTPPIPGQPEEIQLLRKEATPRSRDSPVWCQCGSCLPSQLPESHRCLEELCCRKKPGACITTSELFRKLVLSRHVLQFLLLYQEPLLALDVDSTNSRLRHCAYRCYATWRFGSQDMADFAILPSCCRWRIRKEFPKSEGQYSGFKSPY

SMILES | IC50 | IC50 (listed as (+)2-chloro-N-[3-cyclopropyl-2-[6-(trifluoromethyl)-3-pyridyl]propyl]benzamide)
CS(=O)(=O)c1ccc(Cl)c(C(=O)NCC(CC2CC2)c2ccc(C(F)(F)F)nc2)c1 (single isomer, unassigned; (+)) [(+)2-chloro-N-[3-cyclopropyl-2-[6-(trifluoromethyl)-3-pyridy] [(+)2-chloro-N-[3-cyclopropyl-2-[6-(trifluoromethyl)-3-pyridyl]propyl]-5-methylsulfonyl-benzamide] | 0.56 µM | 
O=C(NCC1(c2ccc(F)nc2)CCC(F)(F)CC1)c1ccccc1F [N-[4,4-Difluoro-1-(6-fluoro-pyridin-3-yl)-cyclohexylmethyl]-] [N-[4,4-Difluoro-1-(6-fluoro-pyridin-3-yl)-cyclohexylmethyl]-2-fluoro-benzamide] | 0.014 µM | 
O=C(NCC(c1cnc(C(F)(F)F)nc1)C1CCC(F)(F)CC1)c1ccccc1Cl (single isomer, unassigned; (-)) [(−)2-chloro-N-[2-(4,4-difluorocyclohexyl)-2-[2-(trifluoromet] [(−)2-chloro-N-[2-(4,4-difluorocyclohexyl)-2-[2-(trifluoromethyl)pyrimidin-5-yl]ethyl]benzamide] | 0.0064 µM | 
O=C(NCC1(c2cncc(F)c2)CCC(F)(F)CC1)c1cccc(Cl)c1Cl [2,3-dichloro-N-((4,4-difluoro-1-(5-fluoropyridin-3-yl)cyclohexyl)methyl)benzamide] | 0.0012 µM | 
O=C(NCC(CC1CC1)c1cnc(C(F)(F)F)nc1)c1cccc(F)c1Cl (stereo not drawn) [2-chloro-N-(3-cyclopropyl-2-(2-(trifluoromethyl)pyrimidin-5-] [2-chloro-N-(3-cyclopropyl-2-(2-(trifluoromethyl)pyrimidin-5-yl)propyl)-3-fluorobenzamide] | 0.014 µM | 
O=C(NCC(c1cnc(C(F)(F)F)nc1)C1CCOCC1)c1c(F)cccc1Cl (single isomer, unassigned; (+)) [(+)2-chloro-6-fluoro-N-[2-tetrahydropyran-4-yl-2-[2-(trifluo] [(+)2-chloro-6-fluoro-N-[2-tetrahydropyran-4-yl-2-[2-(trifluoromethyl)pyrimidin-5-yl]ethyl]benzamide] | 0.056 µM | 
Cc1ncc(C(CNC(=O)c2ccccc2Cl)CC2(C(F)(F)F)CC2)cn1 (single isomer, unassigned; (+)) [(+)2-chloro-N-[2-(2-methylpyrimidin-5-yl)-3-[1-(trifluoromet] [(+)2-chloro-N-[2-(2-methylpyrimidin-5-yl)-3-[1-(trifluoromethyl)cyclopropyl]propyl]benzamide] | 0.13 µM | 
O=C(NCC(CC1(C(F)(F)F)CC1)c1cnc(C(F)(F)F)nc1)c1ccccc1Cl (single isomer, unassigned; (+)) [(+)2-chloro-N-[3-[1-(trifluoromethyl)cyclopropyl]-2-[2-(trifluoromethyl)pyrimidin-5-yl]propyl]benzamide] | 0.0024 µM | 
O=C(NCC1(c2ccc(C3CC3)nc2)CCC(F)(F)CC1)c1cccc(Cl)c1Cl [2,3-dichloro-N-((1-(6-cyclopropylpyridin-3-yl)-4,4-difluorocyclohexyl)methyl)benzamide] | 0.0013 µM | 
O=C(NCC(CC1CC1)c1ccc(C(F)(F)F)nc1)c1ccccc1Cl (single isomer, unassigned; (+)) [Example 4a, (+)-2-Chloro-N-[3-cyclopropyl-2-[6-(tiifluoromethyl)-3-pyridyl]propyl]benzamide] |  | 0.063 µM
COCCC(CNC(=O)c1cccc(Cl)c1Cl)c1cnc(C(F)(F)F)nc1 (stereo not drawn) [2,3-dichloro-N-[4-methoxy-2-[2-(trifluoromethyl)pyrimidin-5-yl]butyl]benzamide] | 2.2 µM | 
Cc1ncc(C(CNC(=O)c2ccccc2Cl)CC2CC2)cn1 (stereo not drawn) [2-chloro-N-[3-cyclopropyl-2-(2-methylpyrimidin-5-yl)propyl]benzamide] | 1.2 µM | 
O=C(NCC1(c2ccc(F)nc2)CCC(F)(F)CC1)c1cccc(F)c1F [N-((4,4-difluoro-1-(6-fluoropyridin-3-yl)cyclohexyl)methyl)-2,3-difluorobenzamide] | 0.29 µM | 
CC(C)(O)c1ccc(C2(CNC(=O)c3cccc(Cl)c3Cl)CCC(F)(F)CC2)cn1 [2,3-dichloro-N-[[4,4-difluoro-1-[6-(1-hydroxy-1-methyl-ethyl)-3-pyridyl]cyclohexyl]methyl]benzamide] | 0.023 µM | 
Cc1c(Br)cccc1C(=O)NCC1(c2ccc(C(F)(F)F)nc2)CCC(F)(F)CC1 [3-bromo-N-((4,4-difluoro-1-(6-(trifluoromethyl)pyridin-3-yl)cyclohexyl)methyl)-2-methylbenzamide] | 0.00071 µM | 
O=C(NCC1(c2ccc(C(F)(F)F)nc2)CCC(F)(F)CC1)c1ccccc1Cl [2-chloro-N-((4,4-difluoro-1-(6-(trifluoromethyl)pyridin-3-yl)cyclohexyl)methyl)benzamide] | 0.002 µM | 
CC(CNC(=O)c1cccc(F)c1Cl)(CC1CC1)c1cnc(C(F)(F)F)nc1 (single isomer, unassigned; (-)) [(−)2-chloro-N-[3-cyclopropyl-2-methyl-2-[2-(trifluoromethyl)] [(−)2-chloro-N-[3-cyclopropyl-2-methyl-2-[2-(trifluoromethyl)pyrimidin-5-yl]propyl]-3-fluoro-benzamide] | 0.034 µM | 
O=C(NCC(CC1CC1)c1ccc(C(F)(F)F)nc1)c1c(Cl)cccc1Cl (single isomer, unassigned; (-)) [(−)2,6-dichloro-N-[3-cyclopropyl-2-[6-(trifluoromethyl)-3-py] [(−)2,6-dichloro-N-[3-cyclopropyl-2-[6-(trifluoromethyl)-3-pyridyl]propyl]benzamide] | 0.0012 µM | 
COc1ccccc1C(=O)NCC1(c2ccc(Cl)cc2)CCOCC1 [N-[4-(4-Chloro-phenyl)-tetrahydro-pyran-4-ylmethyl]-2-methoxy-benzamide] | 0.62 µM | 
Cc1ccccc1C(=O)NCC1(c2cccnc2)CCCC1 [2-Methyl-N-(1-pyridin-3-yl-cyclopentylmethyl)-benzamide] | 3.6 µM | 
O=C(NCC(c1ccc(F)cc1)c1cnc(C(F)(F)F)nc1)c1cccc(F)c1Cl (single isomer, unassigned; (+)) [(+)2-chloro-3-fluoro-N-[2-(4-fluorophenyl)-2-[2-(trifluorome] [(+)2-chloro-3-fluoro-N-[2-(4-fluorophenyl)-2-[2-(trifluoromethyl)pyrimidin-5-yl]ethyl]benzamide] | 0.0048 µM | 
O=C(NCC(c1cnc(C(F)(F)F)nc1)C1CCOCC1)c1cccc(Cl)c1Cl (single isomer, unassigned; (-)) [(−)2,3-dichloro-N-[2-tetrahydropyran-4-yl-2-[2-(trifluoromethyl)pyrimidin-5-yl]ethyl]benzamide] | 0.011 µM | 
O=C(NCC(CC1CC1)c1ccc(C(F)F)nc1)c1cccc(F)c1Cl (single isomer, unassigned; (+)) [(+)2-chloro-N-[3-cyclopropyl-2-[6-(difluoromethyl)-3-pyridyl] [(+)2-chloro-N-[3-cyclopropyl-2-[6-(difluoromethyl)-3-pyridyl]propyl]-3-fluoro-benzamide] | 0.8 µM | 
O=C(NCC(c1cnc(C(F)(F)F)nc1)C1CCOCC1)c1cccc(F)c1Cl (single isomer, unassigned; (+)) [(+)2-chloro-3-fluoro-N-[2-tetrahydropyran-4-yl-2-[2-(trifluo] [(+)2-chloro-3-fluoro-N-[2-tetrahydropyran-4-yl-2-[2-(trifluoromethyl)pyrimidin-5-yl]ethyl]benzamide] | 0.032 µM | 
